Laboratory results reported in patent US20260159536A1, “AKR1C3-ACTIVATED DNA ALKYLATING AGENT, AND MEDICAL APPLICATION THEREOF” (ASCENTAWITS PHARMACEUTICALS, LTD., priority 2021, published 2026).

Tests used:
Design in all cases: species or system BALB/c nude mice
[1] = system: human liver cancer HepG2 cells; assay: In vivo pharmacodynamics, liver cancer HepG2 CDX model
Description: Experiment Instruction: BALB/c nude mice were subcutaneously inoculated with human liver cancer HepG2 cells to establish a subcutaneous transplantation tumor model of human liver cancer. […] The efficacy was evaluated according to the relative tumor inhibition rate TGI (%), and the safety was evaluated according to the change in body weight and the death of the animals.

[2] = system: HuPrime model LI1005 human liver cancer; assay: In vivo pharmacodynamics, liver cancer LI1005 PDX model; details: for Tumor volume: 30 mg/kg p.o.
[3] = system: human liver cancer LI6652; assay: In vivo pharmacodynamics, liver cancer LI6652 subcutaneous xenograft PDX model; details: for Tumor volume: 30 mg/kg p.o.
Description: The pharmacodynamic analysis of each group in liver cancer LI6652 model was performed on Day 31 after administration, and the results were shown in Table 12.

[4] = system: HuPrime model LI6664 human liver cancer; assay: In vivo pharmacodynamics, liver cancer LI6664 PDX model; details: for Size of tumor volume: Group2, Sorafenib 30 mg/kg
Description: Experiment Instruction: BALB/c nude mice were subcutaneously inoculated with HuPrime® model LI6664 tumor blocks to establish a subcutaneous transplantation tumor model of human liver cancer. […] Among them, 7.5% anhydrous ethanol+7.5% polyoxyethylene (35) castor oil+85% glucose injection D5W (pH 7.4) vehicle control group was administered by tail vein once a week for 3 consecutive weeks; test drug AST-3424 0.3 mg/kg and 1 mg/kg groups were administered by tail vein injection once a day for 5 consecutive days, followed by 2 days off, followed by 2 weeks off, and then continuously administered for 5 consecutive days; the test drug AST-3424 1.25 mg/kg group was administered by tail vein injection once a week for 2 consecutive weeks, followed by one week off, and then continuously administered for 2 consecutive weeks, Compound A 0.5 mg/kg, 1.5 mg/kg, and 4.5 mg/kg groups were administered by tail vein injection once a week for three consecutive weeks, followed by 1 week off, and then administered for three consecutive weeks. […] The efficacy was evaluated according to the relative tumor inhibition rate TGI (%), and the safety was evaluated according to the change in body weight and the death of the animals.

[5] = system: human liver cancer LI6652; assay: In vivo pharmacodynamics, liver cancer LI6652 subcutaneous xenograft PDX model; details: 30 mg/kg p.o. QDx21; Day 28
[6] = system: HuPrime model LI6643 human liver cancer; assay: In vivo pharmacodynamics, liver cancer LI6643 PDX model (Compound A, Sorafenib; section 4.8); details: for Tumor volume: 20-30 mg/kg p.o.
Description: Experiment Instruction: BALB/c nude mice were subcutaneously inoculated with HuPrime® model LI6643 tumor blocks to establish a subcutaneous transplantation tumor model of human liver cancer. […] The efficacy was evaluated according to the relative tumor inhibition rate TGI (%), and the safety was evaluated according to the change in body weight and the death of the animals.

[7] = system: HuPrime model LI6280 human liver cancer; assay: In vivo pharmacodynamics, liver cancer LI6280 PDX model; details: for Tumor volume: 30 mg/kg p.o.
Description: Experiment Instruction: BALB/c nude mice were subcutaneously inoculated with HuPrime® model LI6280 tumour blocks to establish a subcutaneous transplantation tumour model of human liver cancer. […] The efficacy was evaluated according to the relative tumor inhibition rate TGI (%), and the safety was evaluated according to the change in body weight and the death of the animals.

[8] = system: HuPrime model LI6643 human liver cancer; assay: In vivo pharmacodynamics, liver cancer LI6643 PDX model (Compound A, Sorafenib, AST-3424; section 4.7); details: for Tumor volume: 30 mg/kg p.o.
Description: Experiment Instruction: BALB/c nude mice were subcutaneously inoculated with HuPrime® model LI6643 tumor blocks to establish a subcutaneous grafted tumor model of human liver cancer. […] The efficacy was evaluated according to the relative tumor inhibition rate TGI (%), and the safety was evaluated according to the change in body weight and the death of the animals.

[9] = 30 mg/kg, QDx21 Days, p.o., Day 53
[10] = 20-30 mg/kg p.o. QD (30 mg/kg day0-day11, 20 mg/kg day 12-day20), Day 35

CNC(=O)c1cc(Oc2ccc(NC(=O)Nc3ccc(Cl)c(C(F)(F)F)c3)cc2)ccn1 [Sorafenib, reference compound]
weight loss ([1]; 30 mg/kg p.o.): caused significant weight loss
Tumor volume ([1]; 30 mg/kg p.o., Day 19): 189.76 mm^3
Tumor volume ([1]; 30 mg/kg p.o., Day 22): 291.62 mm^3
Tumor volume ([1]; 30 mg/kg p.o., Day 24): 311.64 mm^3
Tumor volume ([1]; 30 mg/kg p.o., Day 27): 340.46 mm^3
Tumor volume ([1]; 30 mg/kg p.o., Day 31): 398.84 mm^3
Tumor volume ([1]; 30 mg/kg p.o., Day 36): 491.06 mm^3
Tumor volume ([1]; 30 mg/kg p.o., Day 39): 509.41 mm^3
Tumor volume ([1]; 30 mg/kg p.o., Day 42): 657.51 mm^3
Tumor volume ([1]; 30 mg/kg p.o., Day 46): 816.63 mm^3
Tumor volume ([1]; 30 mg/kg p.o., Day 49): 1012.20 mm^3
Tumor volume ([1]; 30 mg/kg p.o., Day 53): 1484.78 mm^3
T/C (%) [1, 9]: 65.95%
TGI (%) [1, 9]: 34.05%
Tumor volume (x ± S) ([1]; 30 mg/kg, QDx21 Days, p.o., Day 53, in mm³ (unit assumed)): 1484.78 ± 304.89
T/C (%) ([2]; 30 mg/kg p.o. QDx21, Day 35): 28.26%
TGI (%) ([2]; 30 mg/kg p.o. QDx21, Day 35): 71.74%
Tumor volume (x ± S) ([2]; 30 mg/kg p.o. QDx21, Day 35, in mm³ (unit assumed)): 294.09 ± 60.93
Tumor volume ([2]; Day 0): 102.89 mm^3
Tumor volume ([2]; Day 3): 121.64 mm^3
Tumor volume ([2]; Day 7): 136.21 mm^3
Tumor volume ([2]; Day 10): 136.21 mm^3
Tumor volume ([2]; Day 14): 136.89 mm^3
Tumor volume ([2]; Day 17): 140.09 mm^3
Tumor volume ([2]; Day 21): 142.56 mm^3
Tumor volume ([2]; Day 24): 161.17 mm^3
Tumor volume ([2]; Day 28): 200.97 mm^3
Tumor volume ([2]; Day 31): 227.65 mm^3
Tumor volume ([2]; Day 35): 294.09 mm^3
T/C (%) ([3]; 30 mg/kg p.o. QDx21, Day 28): 17.04%
TGI (%) ([3]; 30 mg/kg p.o. QDx21, Day 28): 82.96%
Tumor volume ([3]; Day 0): 125.84 mm^3
Tumor volume ([3]; Day 3): 146.95 mm^3
Tumor volume ([3]; Day 7): 196.51 mm^3
Tumor volume ([3]; Day 10): 212.41 mm^3
Tumor volume ([3]; Day 14): 217.19 mm^3
Tumor volume ([3]; Day 17): 191.72 mm^3
Tumor volume ([3]; Day 21): 178.69 mm^3
Tumor volume ([3]; Day 24): 209.42 mm^3
Tumor volume ([3]; Day 28): 315.93 mm^3
Tumor volume ([3]; Day 31): 441.67 mm^3
Size of tumor volume ([4]; Day 0): 107.93 mm^3
Size of tumor volume ([4]; Day 4): 170.15 mm^3
Size of tumor volume ([4]; Day 7): 197.93 mm^3
Size of tumor volume ([4]; Day 11): 218.34 mm^3
Size of tumor volume ([4]; Day 14): 321.83 mm^3
Size of tumor volume ([4]; Day 18): 391.52 mm^3
Size of tumor volume ([4]; Day 21): 481.85 mm^3
Size of tumor volume ([4]; Day 25): 730.68 mm^3
Size of tumor volume ([4]; Day 28): 1003.42 mm^3
Size of tumor volume ([4]; Day 32): 1333.07 mm^3
Size of tumor volume ([4]; Day 35): 1595.00 mm^3
Size of tumor volume ([4]; Day 39): 2102.94 mm^3
Size of tumor volume ([4]; Day 42): 2729.04 mm^3
Size of tumor volume ([4]; Day 46): 2892.15 mm^3
Size of tumor volume ([4]; Day 49): 2600.00 mm^3
T/C (%) ([4]; Sorafenib 30 mg/kg, Day 28): 71.01%
TGI (%) ([4]; Sorafenib 30 mg/kg, Day 28): 28.99%
Tumor volume (x ± S) ([4]; Sorafenib 30 mg/kg, Day 28, mean ± standard error, in mm³ (unit assumed)): 1003.42 ± 128.88
weight loss ([4]; treatment period, tested doses): weight loss in individual mice
Tumor volume (x ± S) [5]: 315.93 ± 81.35
T/C (%) [6, 10]: 21.81%
Tumor volume (x ± S) [6, 10]: 392.20 ± 64.05
Tumor volume ([6]; Day 0): 126.16 mm^3
Tumor volume ([6]; Day 4): 163.51 mm^3
Tumor volume ([6]; Day 7): 205.85 mm^3
Tumor volume ([6]; Day 11): 235.50 mm^3
Tumor volume ([6]; Day 14): 279.42 mm^3
Tumor volume ([6]; Day 18): 291.41 mm^3
Tumor volume ([6]; Day 21): 287.76 mm^3
Tumor volume ([6]; Day 25): 326.85 mm^3
Tumor volume ([6]; Day 28): 346.56 mm^3
Tumor volume ([6]; Day 32): 385.09 mm^3
Tumor volume ([6]; Day 35): 392.20 mm^3
Tumor volume ([6]; Day 39): 431.87 mm^3
Tumor volume ([6]; Day 42): 451.48 mm^3
Tumor volume ([6]; Day 46): 521.44 mm^3
Tumor volume ([6]; Day 49): 585.72 mm^3
Tumor volume ([6]; Day 53): 622.46 mm^3
T/C (%) ([7]; 30 mg/kg p.o. QDx21, Day 17): 49.65%
TGI (%) ([7]; 30 mg/kg p.o. QDx21, Day 17): 50.35%
Tumor volume (x ± S) ([7]; 30 mg/kg p.o. QDx21, Day 17, in mm³ (unit assumed)): 1076.45 ± 230.21
Tumor volume ([7]; Day 0): 103.93 mm^3
Tumor volume ([7]; Day 3): 168.82 mm^3
Tumor volume ([7]; Day 7): 269.83 mm^3
Tumor volume ([7]; Day 10): 439.29 mm^3
Tumor volume ([7]; Day 14): 731.99 mm^3
Tumor volume ([7]; Day 17): 1076.45 mm^3
Tumor volume ([7]; Day 21): 1241.19 mm^3
Tumor volume ([7]; Day 24): 1504.89 mm^3
Tumor volume ([7]; Day 28): 2218.52 mm^3
Tumor volume ([7]; Day 31): 2313.01 mm^3
T/C (%) ([8]; 30 mg/kg p.o. QDx21, Day 21): 37.88%
TGI (%) ([8]; 30 mg/kg p.o. QDx21, Day 21): 62.12%
Tumor volume (x ± S) ([8]; 30 mg/kg p.o. QDx21, Day 21, in mm³): 214.75 ± 31.53
Tumor volume ([8]; Day 0): 124.67 mm^3
Tumor volume ([8]; Day 3): 170.03 mm^3
Tumor volume ([8]; Day 7): 185.13 mm^3
Tumor volume ([8]; Day 10): 193.95 mm^3
Tumor volume ([8]; Day 14): 189.87 mm^3
Tumor volume ([8]; Day 17): 171.25 mm^3
Tumor volume ([8]; Day 21): 214.75 mm^3
Tumor volume ([8]; Day 24): 238.48 mm^3
Tumor volume ([8]; Day 28): 309.08 mm^3
